Read-outs that look alike come from different tables or passages of the source. Numbered stars: 1 amine (or outer) side, 2 acyl side, 3 side chain; on linkers, the order of the positions; unused ones are H or OH. Bridge positions count the residues as written; N and C are the ends. Square brackets hold non-standard residues; d marks the D form. Side chains are listed from the residue outwards. Peptide text beside a SMILES is read from it. * marks the point of attachment. DOTA(Lu) = O=C1CN2CCN3CCN(CC(=O)*)CCN(CC2)CC(=O)[O][Lu]([O]1)[O]C(=O)C3; X4 = CC(C)(C)C[C@H](CNCCCC[C@H](N[*:1])C(=O)[*:2])N[*:3]; DOTA = O=C(O)CN1CCN(CC(=O)O)CCN(CC(=O)*)CCN(CC(=O)O)CC1; Trp(1-Me,7-Cl) = Cn1cc(C[C@H](N)C(=O)O)c2cccc(Cl)c21; Piperazinyl(4-CH2COOH) = O=C(O)CN1CCN(*)CC1; Trp(1-Me) = Cn1cc(C[C@H](N)C(=O)O)c2ccccc21; d(tBuAla) = CC(C)(C)C[C@@H](N)C(=O)O; NMe3Pal = CN[C@@H](Cc1cccnc1)C(=O)O; Gly(cBu) = N[C@H](C(=O)O)C1CCC1; NMeE = CN[C@@H](CCC(=O)O)C(=O)O; Aad = N[C@@H](CCCC(=O)O)C(=O)O; CO = O=C([*:1])[*:2]
Target: T1, Recombinant Human EphA2 Fc Protein (Homo sapiens, UniProt P29317)
T1 construct: purchased Elabscience
T1 sequence (P29317 24-534 limits assumed): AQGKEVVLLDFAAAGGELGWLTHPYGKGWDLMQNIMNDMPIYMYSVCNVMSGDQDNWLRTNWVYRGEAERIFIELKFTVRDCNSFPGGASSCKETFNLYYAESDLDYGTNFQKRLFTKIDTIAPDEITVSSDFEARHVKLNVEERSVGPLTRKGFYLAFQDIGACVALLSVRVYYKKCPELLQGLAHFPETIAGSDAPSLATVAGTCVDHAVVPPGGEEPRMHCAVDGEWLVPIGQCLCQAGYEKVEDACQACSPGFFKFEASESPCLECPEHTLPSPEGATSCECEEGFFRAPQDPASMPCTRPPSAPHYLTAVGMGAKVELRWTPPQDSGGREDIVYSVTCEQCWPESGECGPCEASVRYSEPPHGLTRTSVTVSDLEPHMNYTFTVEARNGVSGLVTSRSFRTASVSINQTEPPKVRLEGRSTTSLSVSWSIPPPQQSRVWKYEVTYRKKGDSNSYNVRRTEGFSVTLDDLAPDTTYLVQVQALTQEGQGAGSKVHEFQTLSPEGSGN
Test: Interaction analysis (kinetics, KD) of peptides and conjugates against EphA2 by SPR, Biacore T200, single-cycle kinetics (Examples B15 and B22)
Assay type: binding
Procedure, shortened: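 Biacore T200 SPR with Fc-tagged human EphA2 captured via anti-human antibody; running buffer HBS-P+ pH 7.4 with 1% DMSO, 25 °C. Five serial dilutions of peptide or conjugate run by single-cycle kinetics; KD from ka and kd after baseline subtraction.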

| Structure (SMILES) | Kd [nM] | Kd (conjugates, Biacore T200 according to Example B15, Table B16, read-out: SPR Kd) [nM] |
| --- | --- | --- |
| C[C@H]1NC(=O)CSC[C@@H](C(=O)N[C@H](CCC(=O)O)C(N)=O)NC(=O)[C@H](CCCC(N)=O)NC(=O)[C@H]([C@@H](C)O)NC(=O)[C@H](Cc2cn(C)c3ccccc23)NC(=O)[C@H](CCCCNC(=O)N2CCN(CC(=O)O)CC2)NC(=O)[C@H](Cc2cn(C)c3c(Cl)cccc23)NC(=O)[C@H](CCC(=O)O)N(C)C(=O)[C@H](CCCCNC(=O)[C@@H](Cc2ccccc2)NC(=O)CN2CCN3CCN4CCN(CC2)CC(=O)[O][Lu]([O]C(=O)C3)[O]C(=O)C4)NC(=O)[C@H](C2CCC2)NC(=O)[C@H](CC(N)=O)NC(=O)[C@H](Cc2cccnc2)N(C)C1=O [PDC_EphA2-00027127] ({CH2CO}-[dA][NMe3Pal]N[Gly(cBu)]K([dF-DOTA(Lu)])[NMeE][Trp(1-Me,7-Cl)]K([CO-Piperazinyl(4-CH2COOH)])[Trp(1-Me)]T[Aad](NH2)C[dE]-NH2; thioether N-12) | < 1 |  |
| C[C@H]1NC(=O)CSC[C@@H](C(N)=O)NC(=O)[C@H](CCCCNC(=O)[C@@H](CCC(=O)O)NC(=O)CN2CCN3CCN4CCN(CC2)CC(=O)[O][Lu]([O]C(=O)C3)[O]C(=O)C4)NC(=O)[C@H]([C@@H](C)O)NC(=O)[C@H](Cc2cn(C)c3ccccc23)NC(=O)[C@H](CCCCNC(=O)N2CCN(CC(=O)O)CC2)NC(=O)[C@H](Cc2cn(C)c3c(Cl)cccc23)NC(=O)[C@H](CCC(=O)O)N(C)C(=O)[C@H](CCCC(N)=O)NC(=O)[C@H](C2CCC2)NC(=O)[C@H](CC(N)=O)NC(=O)[C@H](Cc2cccnc2)N(C)C1=O [PDC_EphA2-00027128] ({CH2CO}-[dA][NMe3Pal]N[Gly(cBu)][Aad](NH2)[NMeE][Trp(1-Me,7-Cl)]K([CO-Piperazinyl(4-CH2COOH)])[Trp(1-Me)]TK([dE-DOTA(Lu)])C-NH2; thioether N-12) | < 1 |  |
| C[C@H]1NC(=O)CSC[C@@H](C(N)=O)NC(=O)[C@H](CCCCNC(=O)[C@@H](Cc2ccccc2)NC(=O)CN2CCN(CC(=O)O)CCN(CC(=O)O)CCN(CC(=O)O)CC2)NC(=O)[C@H]([C@@H](C)O)NC(=O)[C@H](Cc2cn(C)c3ccccc23)NC(=O)[C@H](CCCCNC(=O)N2CCN(CC(=O)O)CC2)NC(=O)[C@H](Cc2cn(C)c3c(Cl)cccc23)NC(=O)[C@H](CCC(=O)O)N(C)C(=O)[C@H](CCCC(N)=O)NC(=O)[C@H](C2CCC2)NC(=O)[C@H](CC(N)=O)NC(=O)[C@H](Cc2cccnc2)N(C)C1=O.[Lu+3] [PDC_EphA2-00027129] ({CH2CO}-[dA][NMe3Pal]N[Gly(cBu)][Aad](NH2)[NMeE][Trp(1-Me,7-Cl)]K([CO-Piperazinyl(4-CH2COOH)])[Trp(1-Me)]TK([dF-DOTA])C-NH2; thioether N-12) |  | < 1 |
| C[C@H]1NC(=O)CSC[C@@H](C(=O)N[C@H](CCC(=O)O)C(N)=O)NC(=O)[C@H](CCCC(N)=O)NC(=O)[C@H]([C@@H](C)O)NC(=O)[C@H](Cc2cn(C)c3ccccc23)NC(=O)[C@H](CCCCNC(=O)N2CCN(CC(=O)O)CC2)NC(=O)[C@H](Cc2cn(C)c3c(Cl)cccc23)NC(=O)[C@H](CCC(=O)O)N(C)C(=O)[C@H](CCCCNC(=O)[C@@H](CC(C)(C)C)NC(=O)CN2CCN3CCN4CCN(CC2)CC(=O)[O][Lu]([O]C(=O)C3)[O]C(=O)C4)NC(=O)[C@H](C2CCC2)NC(=O)[C@H](CC(N)=O)NC(=O)[C@H](Cc2cccnc2)N(C)C1=O [PDC_EphA2-00027130] ({CH2CO}-[dA][NMe3Pal]N[Gly(cBu)]K([d(tBuAla)-DOTA(Lu)])[NMeE][Trp(1-Me,7-Cl)]K([CO-Piperazinyl(4-CH2COOH)])[Trp(1-Me)]T[Aad](NH2)C[dE]-NH2; thioether N-12) | < 1 |  |
| C[C@H]1NC(=O)CSC[C@@H](C(N)=O)NC(=O)[C@H](CCCCNC[C@@H](CC(C)(C)C)NC(=O)CN2CCN3CCN4CCN(CC2)CC(=O)[O][Lu]([O]C(=O)C3)[O]C(=O)C4)NC(=O)[C@H]([C@@H](C)O)NC(=O)[C@H](Cc2cn(C)c3ccccc23)NC(=O)[C@H](CCCCNC(=O)N2CCN(CC(=O)O)CC2)NC(=O)[C@H](Cc2cn(C)c3ccccc23)NC(=O)[C@H](CCC(=O)O)N(C)C(=O)[C@H](CCCC(N)=O)NC(=O)[C@H](C2CCC2)NC(=O)[C@H](CC(N)=O)NC(=O)[C@H](Cc2cccnc2)N(C)C1=O [PDC_EphA2-00027131] ({CH2CO}-[dA][NMe3Pal]N[Gly(cBu)][Aad](NH2)[NMeE][Trp(1-Me)]K([CO-Piperazinyl(4-CH2COOH)])[Trp(1-Me)]T[X4](DOTA(Lu))C-NH2; thioether N-12) | < 1 |  |

Reference: patent publication US20260364215A1, “Radiopharmaceutical Compositions Targeting Ephrin Type-A Receptor 2 and Uses Thereof” (PeptiDream Inc., priority 2022, published 2026)
